Reference: patent publication US20030203373A1 (priority 2002, published 2003)
Several values for one entry are separate records, joined by “and”; a condition that tells them apart may be missing. Equal entries are not always repeated.

Target: T1, ACE from pig kidney (Sus scrofa, UniProt F1RRW5)
T1 construct: 1 mU ACE from pig kidney (EC 3.4.15.1 (Sigma)); purchased Sigma; host or cells: pig kidney (tissue-derived enzyme)
T1 sequence (F1RRW5 34-1309): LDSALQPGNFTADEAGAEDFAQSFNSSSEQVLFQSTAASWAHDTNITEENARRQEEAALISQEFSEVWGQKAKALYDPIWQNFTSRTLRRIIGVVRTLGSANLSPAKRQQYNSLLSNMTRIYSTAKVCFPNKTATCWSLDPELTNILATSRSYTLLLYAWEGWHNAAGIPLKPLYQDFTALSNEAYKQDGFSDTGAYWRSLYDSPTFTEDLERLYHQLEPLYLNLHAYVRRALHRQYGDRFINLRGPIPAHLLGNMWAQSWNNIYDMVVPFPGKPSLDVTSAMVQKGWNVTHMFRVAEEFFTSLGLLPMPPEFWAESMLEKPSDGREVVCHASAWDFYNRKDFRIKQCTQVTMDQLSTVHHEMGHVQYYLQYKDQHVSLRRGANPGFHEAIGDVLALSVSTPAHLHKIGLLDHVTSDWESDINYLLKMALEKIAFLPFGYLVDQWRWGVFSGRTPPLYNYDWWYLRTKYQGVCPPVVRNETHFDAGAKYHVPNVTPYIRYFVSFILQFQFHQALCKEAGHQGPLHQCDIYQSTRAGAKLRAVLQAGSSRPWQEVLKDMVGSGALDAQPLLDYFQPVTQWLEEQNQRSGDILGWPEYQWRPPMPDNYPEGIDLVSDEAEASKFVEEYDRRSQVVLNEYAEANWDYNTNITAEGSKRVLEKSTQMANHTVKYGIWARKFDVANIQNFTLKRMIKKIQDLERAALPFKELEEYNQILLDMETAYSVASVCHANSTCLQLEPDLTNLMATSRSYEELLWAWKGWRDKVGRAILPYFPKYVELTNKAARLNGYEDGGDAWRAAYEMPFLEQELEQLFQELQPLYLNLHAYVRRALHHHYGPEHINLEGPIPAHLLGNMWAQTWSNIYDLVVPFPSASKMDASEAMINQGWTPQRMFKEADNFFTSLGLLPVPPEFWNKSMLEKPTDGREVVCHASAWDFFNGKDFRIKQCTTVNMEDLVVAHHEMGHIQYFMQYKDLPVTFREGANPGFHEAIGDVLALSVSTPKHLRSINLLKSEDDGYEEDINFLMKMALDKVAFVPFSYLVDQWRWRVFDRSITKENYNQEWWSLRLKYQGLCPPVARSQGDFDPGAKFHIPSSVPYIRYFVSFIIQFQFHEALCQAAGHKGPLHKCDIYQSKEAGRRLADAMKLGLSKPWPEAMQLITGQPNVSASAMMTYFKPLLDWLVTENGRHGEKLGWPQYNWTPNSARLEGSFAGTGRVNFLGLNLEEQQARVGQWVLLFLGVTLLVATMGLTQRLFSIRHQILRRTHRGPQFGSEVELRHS
Assay: biochemical
Format: biochemical
Outline: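 Pig kidney ACE (1 mU) in 25 mM HEPES, 0,3 M NaCl, pH 8,2 was mixed with inhibitor solutions (0,35-200 μM) and started with 2 mM hippuryl-histidyl-leucine solution. After 30 min at 22° C the reaction was stopped with NaOH and the product derivatized with ortho-phthalaldehyde for fluorescence. IC50 was read graphically from % inhibition curves.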

[1] = inhibitor 0.78125 μM, replicates A-D
[2] = inhibitor 1.5625 μM, replicates A-D
[3] = inhibitor 3.125 μM, replicates A-D
[4] = inhibitor 6.25 μM, replicates A-D
[5] = inhibitor 12.5 μM, replicates A-D
[6] = inhibitor 25 μM, replicates A-D
[7] = inhibitor 50 μM, replicates A-D
[8] = inhibitor 100 μM, replicates A-D
[9] = inhibitor 200 μM, replicates A-D

SMILES: CC(C)C[C@H](NC(=O)[C@H](C)N)C(=O)N[C@@H](CO)C(=O)N1CCC[C@H]1C(=O)N[C@@H](CC(C)C)C(=O)N1CCC[C@H]1C(=O)N[C@@H](CCC(=O)O)C(=O)N[C@H](C(=O)N1CCC[C@H]1C(=O)N1CCC[C@H]1C(=O)O)C(C)C [Peptide S545]
- IC50 (ACE from pig kidney, determined graphically, read-out: IC50-value (ACE inhibition)): 2400 nM
- fluorescence reading (ACE Inhibitor Assay) (inhibitor 0.39 μM, replicates A-D): 811412 and 841911 and 876502 and 774338
- % inhibition (ACE Inhibitor Assay) (inhibitor 0.39 μM, replicates A-D, 0.39 µM): 12.66% and 9.36% and 5.61% and 16.67%
- fluorescence reading (ACE Inhibitor Assay) [1]: 726277 and 720995 and 719037 and 692816
- inhibition at 0.78125 µM [1]: 21.9%
- % inhibition (ACE Inhibitor Assay) (inhibitor 0.78125 μM, replicates A-D, 0.78125 µM): 22.45% and 22.66% and 25.5%
- fluorescence reading (ACE Inhibitor Assay) [2]: 541353 and 551184 and 577933 and 551569
- inhibition at 1.5625 µM [2]: 41.9%
- % inhibition (ACE Inhibitor Assay) (inhibitor 1.5625 μM, replicates A-D, 1.5625 µM): 40.85% and 37.95% and 40.8%
- fluorescence reading (ACE Inhibitor Assay) [3]: 405396 and 408086 and 447790 and 392263
- inhibition at 3.125 µM [3]: 56.6%
- % inhibition (ACE Inhibitor Assay) (inhibitor 3.125 μM, replicates A-D, 3.125 µM): 56.36% and 52.05% and 58.06%
- fluorescence reading (ACE Inhibitor Assay) [4]: 251538 and 279216 and 263340 and 250076
- inhibition at 6.25 µM [4]: 73.3%
- % inhibition (ACE Inhibitor Assay) (inhibitor 6.25 μM, replicates A-D, 6.25 µM): 70.3% and 72.02% and 73.46%
- fluorescence reading (ACE Inhibitor Assay) [5]: 174037 and 177324 and 175378 and 177772
- inhibition at 12.5 µM [5]: 81.7%
- % inhibition (ACE Inhibitor Assay) (inhibitor 12.5 μM, replicates A-D, 12.5 µM): 81.34% and 81.55% and 81.29%
- fluorescence reading (ACE Inhibitor Assay) [6]: 108586 and 113328 and 113458 and 104078
- inhibition at 25 µM [6]: 88.8%
- % inhibition (ACE Inhibitor Assay) (inhibitor 25 μM, replicates A-D, 25 µM): 88.27% and 88.26% and 89.27%
- fluorescence reading (ACE Inhibitor Assay) [7]: 53158 and 63009 and 54447 and 48696
- inhibition at 50 µM [7]: 94.8%
- % inhibition (ACE Inhibitor Assay) (inhibitor 50 μM, replicates A-D, 50 µM): 93.72% and 94.65% and 95.27%
- fluorescence reading (ACE Inhibitor Assay) [8]: 28035 and 29130 and 30237 and 28568
- inhibition at 100 µM [8]: 97.5%
- % inhibition (ACE Inhibitor Assay) (inhibitor 100 μM, replicates A-D, 100 µM): 97.39% and 97.27% and 97.45%
- fluorescence reading (ACE Inhibitor Assay) [9]: 17677 and 17238 and 18084 and 18937
- inhibition at 200 µM [9]: 98.6%
- % inhibition (ACE Inhibitor Assay) (inhibitor 200 μM, replicates A-D, 200 µM): 98.68% and 98.59% and 98.5%
- fold higher dose necessary in the ACE-assay to reach the same effect as with Captopril (relative to Captopril): 1000 fold
